# Laboratory results taken from patent US10301308B2, “Azetidine derivatives for tau imaging” (Eli Lilly and Company, priority 2015, dated 2019).
# How the values were obtained:
# [1] = Mouse PET/CT time activity curves; format: in vivo, CD-1 wild type mice
# Procedure: Dynamic Micro-Positron Emission Tomography (mPET) images are obtained from CD-1 wild type mice using 3-(3-[18F]-fluoroazetidin-1-yl)-8-methylbenzo[4,5]imidazo[1,2-a]pyridine. Micro-Computed Tomography (mCT) of each subject is used as anatomical reference for image analysis. Biodistribution of the tracer in brain, muscle, bone, liver, and kidney is assessed by generating Time Activity Curves (TAC) using the fused mPET/mCT images. An INVEON multimodality scanner (Siemens, Germany) is used for mPET/mCT. All animal work is performed in accordance with the University of Sciences Institutional Animal Care & Use Committee-approved procedures.
# Animals are anesthetized with 3% isoflurane/97% oxygen and are placed on the scanner bed. A short high-resolution CT scan is first performed for anatomical registration, followed by a 120-minute PET scan. During the PET scan a water heating system is placed underneath the bed to help maintain the body temperature. Within 3 minutes after the beginning of the PET acquisition, the [18F]-labeled compound 3-(3-[18F]-fluoroazetidin-1-yl)-8-methylbenzo[4,5]imidazo[1,2-a]pyridine is administered to the animals via tail vein injection (250 uCi in a total volume of 200 uL saline). A PET image is generated for each minute of the acquisition time. Uptake of the tracer is obtained by visually drawing regions of interest based on the fused PET/CT images, and the corresponding activity values are determined using the INVEON Research Workplace software (Siemens, Germany). All values are represented as percent injected dose per gram (% ID/g).
# The mouse PET/CT time activity curves of 3-(4-(2-[18F]-fluoroethyl)piperidin-1-yl)-8-methoxybenzo[4,5]imidazo[1,2-a]pyridine (T821) (See FIG. 9) and of 3-(4-[18F]-fluoropiperidin-1-yl)-8-methoxybenzo[4,5]imidazo[1,2-a]pyridine (T798) (See FIG. 10) are obtained as described in Assay Example 7 (T821 and T798 are recited in US2011/0182812). […] Therefore, when imaging with T821 and/or T798, the undesirable non-tau PET signals from the skull bones could interfere with desired tau signals from the brain cortex. Thus, in addition to the lack of selectivity for T821 and T798, these compounds would further represent poor candidates for human brain tau PET tracers because of the interfering radioactivity signal from bone. […] The advantageous properties of Compound 8 are useful to provide enhanced tau PET imaging in humans. This combination of critical properties was not known and could not have been predicted from existing tau imaging compounds.
# [2] = Preliminary stability of Compound 8 formulations (radiochemical purity by HPLC); format: physicochemical
# Procedure: The HPLC fraction containing the purified 3-(3-[18F]-fluoroazetidin-1-yl)-8-methylbenzo[4,5]imidazo[1,2-a]pyridine is diluted with 0.5% (w/v) sodium ascorbate in WFI (40 mL). The diluted solution is then passed through a Sep-Pak® C18 Plus Light Cartridge (130 mg Sorbent per Cartridge, 55-105 μm Particle Size, Waters Part No. WAT023501; conditioned with ethanol (5 mL) then WFI (5 mL) prior to use) and the retained 3-(3-[18F]-fluoroazetidin-1-yl)-8-methylbenzo[4,5]imidazo[1,2-a]pyridine is washed with 0.5% (w/v) sodium ascorbate in water for injection solution (10 mL). 3-(3-[18F]-fluoroazetidin-1-yl)-8-methylbenzo[4,5]imidazo[1,2-a]pyridine is eluted off the C18 cartridge using dehydrated alcohol, USP (1 mL) into a flask containing 7 mL of 0.5% (w/v) sodium ascorbate in 0.9% sodium chloride for injection, USP. The C18 cartridge is then rinsed with an additional 2 mL of 0.5% (w/v) sodium ascorbate in 0.9% sodium chloride for injection, USP. The resulting solution (total 10 mL) is sterile filtered through a 0.22 μm Millex GV PVDF filter (Millipore SLGV013SL) into the bulk product vial (BPV: 30 mL Sterile Empty Vial from Allergy Laboratories with a 20 mm chlorobutyl stopper). A sample from the BPV is taken out for quality control (see FIG. 2 for representative chromatogram) by HPLC using the gradient method detailed in Table 1 below.
# Preliminary stability of 3-(3-[18F]-fluoroazetidin-1-yl)-8-methylbenzo[4,5]imidazo[1,2-a]pyridine (Compound 8) formulations are evaluated. Samples from batches (size ranging from 235 mCi to 471 mCi) are taken and analyzed by HPLC for radiochemical purity over an 6 hour time period.
# [3] = mouse PET/CT time activity curves
# [4] = tail vein injection, 120-minute PET scan
# [5] = batch 235 mCi, 23.5 mCi/mL, 10% EtOH, 0.45% Sodium Ascorbate in 0.9% Sodium Chloride
# [6] = batch 295 mCi, 14.8 mCi/mL, 10% EtOH, 0.45% Sodium Ascorbate in 0.9% Sodium Chloride
# [7] = batch 337 mCi, 33.7 mCi/mL, 10% EtOH, 0.45% Sodium Ascorbate in 0.9% Sodium Chloride
# [8] = batch 471 mCi, 47.1 mCi/mL, 10% EtOH in 0.9% Sodium Chloride (no sodium ascorbate)
smiles,measurement,setting,value
"Cc1ccc2nc3cc(N4CC([18F])C4)ccn3c2c1 [Compound 8, 3-(3-[18F]-fluoroazetidin-1-yl)-8-methylbenzo[4,5]imidazo[1,2-a]pyridine]",bone uptake of radioactivity,[1]; [3],negligible radioactivity signal in bone
same,brain uptake compared to T821 and T798,[1]; [3],significantly superior and surprising brain uptake
same,bone uptake of radioactivity,"[1]; mouse PET/CT time activity curves, listed as 3-(3-[18F]-Fluoroazetidin-1-yl)-8-methylbenzo[4,5]imidazo[1,2-a]pyridine",no significant uptake of radioactivity in bone tissue
same,brain entry compared with [18F]AV-1451,[1]; [4],higher % ID/g than [18F]AV-1451
same,clearance from brain,[1]; [4],cleared quickly
same,Stability Results (% RCP) T0,"[2]; batch 235 mCi, 23.5 mCi/mL, 10% EtOH (v/v), 0.45% (w/v) Sodium Ascorbate in 0.9% Sodium Chloride Injection, USP",98 % RCP
same,Stability Results (% RCP) T0+2 h,[2]; [5],97 % RCP
same,Stability Results (% RCP) T0+4 h,[2]; [5],97 % RCP
same,Stability Results (% RCP) T0+6 h,"[2]; batch 235 mCi, 23.5 mCi/mL, 10% EtOH, 0.45% Sodium Ascorbate in 0.9% Sodium Chloride, T0+6 h",97 % RCP
same,Stability Results (% RCP) T0,[2]; [6],97 % RCP
same,Stability Results (% RCP) T0+2 h,[2]; [6],96 % RCP
same,Stability Results (% RCP) T0+4 h,[2]; [6],96 % RCP
same,Stability Results (% RCP) T0+6 h,"[2]; batch 295 mCi, 14.8 mCi/mL, 10% EtOH, 0.45% Sodium Ascorbate in 0.9% Sodium Chloride, T0+6 h",96 % RCP
same,Stability Results (% RCP) T0,[2]; [7],98 % RCP
same,Stability Results (% RCP) T0+2 h,[2]; [7],97 % RCP
same,Stability Results (% RCP) T0+4 h,[2]; [7],96 % RCP
same,Stability Results (% RCP) T0+6 h,"[2]; batch 337 mCi, 33.7 mCi/mL, 10% EtOH, 0.45% Sodium Ascorbate in 0.9% Sodium Chloride, T0+6 h",96 % RCP
same,Stability Results (% RCP) T0,"[2]; batch 471 mCi, 47.1 mCi/mL, 10% EtOH (v/v) in 0.9% Sodium Chloride Injection, USP (no sodium ascorbate)",89 % RCP
same,Stability Results (% RCP) T0+2 h,[2]; [8],89 % RCP
same,Stability Results (% RCP) T0+4 h,[2]; [8],80 % RCP
same,Stability Results (% RCP) T0+6 h,"[2]; batch 471 mCi, 47.1 mCi/mL, 10% EtOH in 0.9% Sodium Chloride (no sodium ascorbate), T0+6 h column, value taken at 5 h",0 (5 h) % RCP
same,stability of formulation over time,[2]; batch formulated without sodium ascorbate,deteriorates over time and degrades by 5 hours
same,radiochemical purity retained,"[2]; batches formulated with sodium ascorbate, up to 6 hours",96-97%
